The source made the active and inactive calls. No cut-off for these calls is given here.
Assays:
[1] = Electrochemical behavior of the compound assessed as redox potential corrected toward saturated Ag/AgCl reference electrode by cyclic voltammetry
[2] = Antioxidant activity assessed as ABTS radical scavenging activity measured after 15 mins by UV-Visible spectrophotometric based assay; assay type: functional
[3] = Electrochemical behavior of the compound assessed as redox potential corrected toward saturated Ag/AgCl reference electrode by differential pulse voltammetry
[4] = Antioxidant activity assessed as DPPH radical scavenging activity measured after 45 mins by UV-Visible spectrophotometric based assay; assay type: functional
SH-SY5Y [5] = assay: Induction of ROS generation in human SH-SY5Y cells at 50 uM incubated for 24 hrs by DCFH-DA probe based fluorescence assay relative to control; assay type: functional
[6] = Cytotoxicity against human SH-SY5Y cells assessed as cell metabolic activity at 10 uM incubated for 24 hrs by MTT assay relative to control; assay type: ADME, cell-based; details: read-out: Activity
[7] = Cytotoxicity against human SH-SY5Y cells assessed as cell metabolic activity at 50 uM incubated for 24 hrs by MTT assay relative to control; assay type: ADME, cell-based; details: read-out: Activity
[8] = Cytotoxicity against human HepG2 cells assessed as cell metabolic activity at 10 uM incubated for 48 hrs by resazurin assay relative to control; assay type: ADME, cell-based; details: read-out: Activity
SH-SY5Y [9] = assay: Neuroprotective activity against TBHP-induced oxidative damage in human SH-SY5Y cells assessed as increase in cell viability at 10 uM pretreated for 24 hrs followed by TBHP stimulation measured after 4 hrs by MTT assay relative to control; assay type: functional, cell-based
SH-SY5Y [10] = assay: Neuroprotective activity against TBHP-induced oxidative damage in human SH-SY5Y cells assessed as increase in cell viability at 50 uM pretreated for 24 hrs followed by TBHP stimulation measured after 4 hrs by MTT assay relative to control; assay type: functional
[11] = Cytotoxicity against human HepG2 cells assessed as cell metabolic activity at 50 uM incubated for 48 hrs by resazurin assay relative to control; assay type: ADME, cell-based; details: read-out: Activity
SH-SY5Y [12] = assay: Neuroprotective activity against 6-OHDA-induced toxicity in human SH-SY5Y cells assessed as reduction in cell damage at 10 to 50 uM pretreated for 24 hrs followed by 6-OHDA challenge and measured after 24 hrs by MTT assay relative to control; assay type: functional
SH-SY5Y [13] = assay: Neuroprotective activity against H2O2-induced oxidative damage in human SH-SY5Y cells assessed as reduction in cell damage at 50 uM pretreated for 24 hrs followed by H2O2 challenge measured after 30 mins by MTT assay relative to control; assay type: functional; parameters: scale not given: the % may be the effect or the level left
[14] = Metal chelating activity assessed as compound-Fe2+ complex formation at 100 uM incubated for 10 mins by ferrozine spectrophotometric assay
SH-SY5Y [15] = assay: Neuroprotective activity against H2O2-induced oxidative damage in human SH-SY5Y cells assessed as reduction in cell damage at 10 uM pretreated for 24 hrs followed by H2O2 challenge measured after 30 mins by MTT assay relative to control; assay type: functional; parameters: scale not given: the % may be the effect or the level left
[16] = Apparent permeability across apical to basolateral side in human CMEC/D3 cells at 100 uM incubated up to 180 mins by UV-VIS spectroscopic method; assay type: ADME, cell-based; details: hcmec/d3, 3 h
[17] = Apparent permeability across apical to basolateral side in human CMEC/D3 cells at 100 uM incubated by UV-VIS spectroscopic method; assay type: ADME, cell-based; details: hcmec/d3, 100 µM, TDE = time-dependent effect
[18] = Cytotoxicity against human CMEC/D3 cells assessed as reduction in cell viability at 50 to 100 uM incubated for 4 hrs by MTT assay relative to control; assay type: cell-based; details: hcmec/d3, 4 h

Row | SMILES | Activity [1] | IC50 [2] | Activity [3] | IC50 [4] | Activity (SH-SY5Y [5]) | viability at 24 h, 10 µM [6] | viability at 24 h, 50 µM [7] | viability at 48 h, 10 µM [8] | Activity (SH-SY5Y [9]) | Activity (SH-SY5Y [10]) | viability at 48 h, 50 µM [11] | Activity (SH-SY5Y [12]) | Activity (SH-SY5Y [13]) | Activity [14] | Activity (SH-SY5Y [15]) | permeability [16] | permeability [17] | Activity [18]
1 | O=C(O)c1ccc(O)c(O)c1 [PROTOCATECHUIC ACID] | 234 mV | 26.1 µM | 234 mV | 42 µM |  |  |  |  |  |  |  |  |  |  |  |  |  | 
2 | CS(=O)(=O)[O-].O=C(/C=C/c1cc(O)c(O)c(O)c1)NCCCCCCCCCC[P+](c1ccccc1)(c1ccccc1)c1ccccc1 | 57 mV | 7.5 µM | 741 mV | 13.7 µM | Active | 99% | 101% | 105% | inactive | inactive | 108% | inactive | 70.8 - 83.3% | > 80% | 70.8 - 83.3% |  |  | 
3 | CS(=O)(=O)[O-].O=C(Cc1cc(O)c(O)c(O)c1)NCCCCCC[P+](c1ccccc1)(c1ccccc1)c1ccccc1 | 58 mV | 9.5 µM | 469 mV | 23.5 µM | Active | 90.6% | 93.7% | 106% | inactive | inactive | 87.7% | Active | inactive | 95.3% | inactive | 65.4% | Tde | Non-Toxic
4 | O=C(O)Cc1ccc(O)c(O)c1 [3,4-DIHYDROXYPHENYLACETIC ACID] | 122 mV | 18 µM | 270 mV | 26.2 µM |  |  |  |  |  |  |  |  |  |  |  |  |  | 
5 | CS(=O)(=O)[O-].O=C(CCc1cc(O)c(O)c(O)c1)NCCCCCCCCCC[P+](c1ccccc1)(c1ccccc1)c1ccccc1 | 12 mV | 11.9 µM | 537 mV | 23.2 µM | Active | 92.8% | 96.3% | 106% | inactive | inactive | 108% | 66.5 - 70.2% | 70.8 - 83.3% | > 80% | 70.8 - 83.3% | 33.1% | Tde | Non-Toxic
6 | O=C(O)CCc1ccc(O)c(O)c1 [DIHYDROCAFFEIC ACID] | 112 mV | 24 µM | 216 mV | 24.8 µM |  |  |  |  |  |  |  |  |  |  |  |  |  | 
7 | CS(=O)(=O)[O-].O=C(CCc1cc(O)c(O)c(O)c1)NCCCCCC[P+](c1ccccc1)(c1ccccc1)c1ccccc1 | 11 mV | 10.9 µM | 547 mV | 20.2 µM | Active | 95.9% | 91.7% | 113% | inactive | inactive | 117% | Active |  | > 80% |  | 23.7% | Tde | Non-Toxic
8 | O=C(NCCCCCC[P+](c1ccccc1)(c1ccccc1)c1ccccc1)c1cc(O)c(O)c(O)c1.[Br-] | 115 mV | 6.5 µM | 559 mV | 14 µM | Active | 100% | 98.2% | 89.4% | inactive | inactive | 88.5% | inactive | 70.8 - 83.3% | > 80% | 70.8 - 83.3% |  |  | 
9 | Cc1c(C)c2c(c(C)c1O)CCC(C)(C(=O)O)O2 (stereo unspecified) [TROLOX] | 113 mV | 24.5 µM | 113 mV | 31.1 µM |  | 3.62% | 3.62% | 5.99% |  |  | 5.99% |  |  |  |  |  |  | 
10 | CS(=O)(=O)[O-].O=C(/C=C/c1ccc(O)c(O)c1)NCCCCCC[P+](c1ccccc1)(c1ccccc1)c1ccccc1 | 164 mV | 30.5 µM | 164 mV | 29.5 µM |  | 103% | 97.6% | 111% | inactive | inactive | 112% | inactive | 70.8 - 83.3% | > 80% | 70.8 - 83.3% |  |  | 
11 | CS(=O)(=O)[O-].O=C(Cc1ccc(O)c(O)c1)NCCCCCC[P+](c1ccccc1)(c1ccccc1)c1ccccc1 | 141 mV | 27.2 µM | 141 mV | 55 µM | 81.3% | 95.3% | 96.9% | 103% | inactive | 22.3% | 100% | Active | inactive | > 80% |  | 71.9% | Tde | Non-Toxic
12 | O=C(NCCCCCC[P+](c1ccccc1)(c1ccccc1)c1ccccc1)c1ccc(O)c(O)c1 | 219 mV | 20.7 µM | 219 mV | 31 µM |  | 102% | 96.9% | 97.4% | inactive | inactive | 90.3% | inactive |  | > 80% | inactive |  |  | 
13 | CS(=O)(=O)[O-].O=C(Cc1cc(O)c(O)c(O)c1)NCCCCCCCCCC[P+](c1ccccc1)(c1ccccc1)c1ccccc1 | 11 mV | 7.6 µM | 594 mV | 20.7 µM | Active | 95.2% | 95.3% | 102% | inactive | inactive | 93.6% | 66.5 - 70.2% | 70.8 - 83.3% | > 80% | 70.8 - 83.3% | 27.7% | Tde | Non-Toxic
14 | O=C(O)CCc1cc(O)c(O)c(O)c1 | 120 mV | 9.2 µM | 543 mV | 11.1 µM |  |  |  |  |  |  |  |  |  |  |  |  |  | 
15 | O=C(O)c1cc(O)c(O)c(O)c1 [GALLIC ACID] | 120 mV | 7.8 µM | 559 mV | 9.9 µM |  |  |  |  |  |  |  |  |  |  |  |  |  | 
16 | O=C(NCCCCCCCCCC[P+](c1ccccc1)(c1ccccc1)c1ccccc1)c1cc(O)c(O)c(O)c1 | 114 mV | 7.4 µM | 725 mV | 10.2 µM | Active | 107% | 101% | 108% | inactive | inactive | 108% | inactive | 70.8 - 83.3% | > 80% | 70.8 - 83.3% |  |  | 
17 | O=C(O)Cc1cc(O)c(O)c(O)c1 | 135 mV | 4.7 µM | 550 mV | 6.8 µM |  |  |  |  |  |  |  |  |  |  |  |  |  | 
18 | O=C(O)/C=C/c1cc(O)c(O)c(O)c1 | 56 mV | 4.6 µM | 589 mV | 10.3 µM |  |  |  |  |  |  |  |  |  |  |  |  |  | 
19 | CS(=O)(=O)[O-].O=C(CCc1ccc(O)c(O)c1)NCCCCCC[P+](c1ccccc1)(c1ccccc1)c1ccccc1 | 132 mV | 28.3 µM | 132 mV | 55.6 µM | 83.1% | 93.5% | 97.5% | 104% | inactive | inactive | 99.3% | Active | Active | > 80% |  | 24.6% | Tde | Non-Toxic
20 | O=C(O)/C=C/c1ccc(O)c(O)c1 [CAFFEIC ACID] | 168 mV | 20.5 µM | 168 mV | 28.5 µM |  |  |  |  |  |  |  |  |  |  |  |  |  | 

— ChEMBL document CHEMBL4390649, “Fine-tuning the neuroprotective and blood-brain barrier permeability profile of multi-target agents designed to prevent progressive mitochondrial dysfunction” (Eur J Med Chem, 2019)
